Test results published in ChEMBL document CHEMBL5236634, “Membrane-Targeting Neolignan-Antimicrobial Peptide Mimic Conjugates to Combat Methicillin-Resistant Staphylococcus aureus (MRSA) Infections” (J Med Chem, 2022).
Active and inactive are the calls of the source. The rule behind the calls is not given here.

What was measured:
[1] = Hemolytic activity in sheep RBC incubated for 1 hr by absorbance based analysis; format: toxicity, cell-based, Ovis aries, Erythrocyte; conditions: sheep red blood cells
Cell membrane [2] = assay: Induction of membrane depolarization in methicillin-resistant Staphylococcus aureus 15 assessed as increase in fluorescence intensity at 32 ug/ml by DiSC3-5 dye based fluorescence method; format: subcellular; conditions: dose 32.0 µg/ml
Staphylococcus aureus [3] = assay: Antibacterial activity against methicillin-resistant Staphylococcus aureus 15 incubated for 16 to 18 hrs in presence of cardiolipin by checkerboard microdilution assay; format: functional, organism-based; conditions: time 16-18 hrs
Staphylococcus aureus [4] = assay: Induction of ROS production in methicillin-resistant Staphylococcus aureus 15 assessed as accumulation of intracellular ROS incubated for 30 mins by DCFH-DA staining based fluorescence assay; format: functional, organism-based; conditions: dose 2-64 µg/ml
Staphylococcus aureus [5] = assay: Bactericidal activity against Staphylococcus aureus ATCC 29213 at 4 to 8 times MIC measured for 24 hrs by time kill assay; format: functional, organism-based
Salmonella enterica = assay: Antibacterial activity against Salmonella enterica 8389 assessed as inhibition of bacterial growth incubated for 16 to 20 hrs by CLSI based microdilution method; format: functional; conditions: time 16-20 hrs
Cell membrane [6] = assay: Induction of cell membrane disruption in methicillin-resistant Staphylococcus aureus 15 assessed as DNA leakage at 1 to 6 times MIC incubated for 1 to 2 hrs by microspectrophotometer; format: subcellular; conditions: time 1-2 hrs
Staphylococcus aureus [7] = assay: Antibacterial activity against methicillin-resistant Staphylococcus aureus 15 infected in BALB/c mouse sepsis model assessed as reduction in bacterial load in liver at 10 mg/kg, ip measured after 48 hrs; format: functional, organism-based
[8] = Toxicity in BALB/c mouse assessed as effect on creatinine level at 50 mg/kg, ip administered as single dose and measured after 24 hrs; format: organism-based; conditions: in vivo
Staphylococcus aureus [9] = assay: Antibacterial activity against methicillin-resistant Staphylococcus aureus 15 infected in BALB/c mouse sepsis model assessed as survival rate at 20 mg/kg, ip administered for 7 days; format: functional; conditions: Staphylococcus aureus, 15, 168 h, time 7 day
[10] = Toxicity in BALB/c mouse assessed as effect on RBC count at 50 mg/kg, ip administered as single dose and measured after 24 hrs; format: organism-based, Erythrocyte; conditions: in vivo
[11] = Toxicity in BALB/c mouse assessed as effect on hemoglobin level at 50 mg/kg, ip administered as single dose and measured after 24 hrs; format: organism-based; conditions: in vivo
[12] = Toxicity in BALB/c mouse assessed as effect on WBC count at 50 mg/kg, ip administered as single dose and measured after 24 hrs; format: organism-based; conditions: in vivo
[13] = Toxicity in BALB/c mouse assessed as effect on hematocrit level at 50 mg/kg, ip administered as single dose and measured after 24 hrs; format: organism-based; conditions: in vivo
Staphylococcus aureus [14] = assay: Induction of drug resistance in Staphylococcus aureus ATCC 29213 assessed as increase in MIC at 0.5 times MIC measured for 20 days by CLSI based microdilution method; format: functional, organism-based; conditions: time 20.0 day
[15] = Toxicity in BALB/c mouse assessed as pathological changes in liver at 50 mg/kg, ip administered as single dose and measured after 24 hrs by H & E staining based analysis; format: organism-based; conditions: in vivo
Micrococcus luteus = assay: Antibacterial activity against Micrococcus luteus assessed as inhibition of bacterial growth incubated for 16 to 20 hrs by CLSI based microdilution method; format: functional; conditions: time 16-20 hrs
Cell membrane [16] = assay: Disruption of membrane integrity in methicillin-resistant Staphylococcus aureus 15 at 32 ug/ml by SEM analysis; format: subcellular; conditions: dose 32.0 µg/ml
[17] = Toxicity in BALB/c mouse assessed as effect on mean corpuscular volume at 50 mg/kg, ip administered as single dose and measured after 24 hrs; format: organism-based; conditions: in vivo
Staphylococcus aureus [18] = assay: Inhibition of biofilm formation in Staphylococcus aureus ATCC 29213 assessed as destruction of formed biofilm at 0 to 128 ug/ml incubated for 24 hrs by crystal violet staining based analysis; format: functional, organism-based; conditions: dose 0-128 µg/ml
Staphylococcus aureus [19] = assay: Antibacterial activity against methicillin-resistant Staphylococcus aureus 15 incubated for 16 to 18 hrs in presence of phosphatidylglycerol by checkerboard microdilution assay; format: functional, organism-based; conditions: time 16-18 hrs
Staphylococcus aureus [20] = assay: Antibacterial activity against methicillin-resistant Staphylococcus aureus 15 incubated for 16 to 18 hrs in presence of peptidoglycan by checkerboard microdilution assay; format: functional, organism-based; conditions: time 16-18 hrs
Staphylococcus aureus [21] = assay: Antibacterial activity against methicillin-resistant Staphylococcus aureus 15 infected in BALB/c mouse sepsis model assessed as reduction in bacterial load in kidney at 10 mg/kg, ip measured after 48 hrs; format: functional, organism-based
Staphylococcus aureus [22] = assay: Inhibition of biofilm formation in methicillin-resistant Staphylococcus aureus 15 incubated for 24 hrs by crystalline violet staining based analysis; format: functional, organism-based; conditions: dose 0.125-64 µg/ml
Staphylococcus aureus [23] = assay: Antibacterial activity against methicillin-resistant Staphylococcus aureus 15 infected in BALB/c mouse sepsis model assessed as reduction in inflammatory factors in organs at 10 mg/kg, ip measured after 48 hrs by H & E staining based analysis; format: functional, organism-based
L02 = assay: Cytotoxicity against human L02 cells assessed as reduction in cell viability at 2.5 to 80 ug/ml incubated for 24 hrs by CCK-8 assay; format: toxicity, cell-based; conditions: l02, 24 h, dose 2.5-80 µg/ml
Staphylococcus aureus [24] = assay: Antibiofilm activity against methicillin-resistant Staphylococcus aureus 15 assessed as reduction in live bacteria in biofilm incubated for 24 hrs by crystal violet staining based analysis; format: functional, organism-based; conditions: dose 0-128 µg/ml
Staphylococcus aureus [25] = assay: Antibacterial activity against methicillin-resistant Staphylococcus aureus 15 infected in BALB/c mouse sepsis model assessed as improvement in survival rate at 5 to 10 mg/kg, ip administered for 7 days; format: functional, organism-based; conditions: dose 5-10 mg/kg, time 7.0 day
Staphylococcus aureus [26] = assay: Antibacterial activity against methicillin-resistant Staphylococcus aureus 15 infected in BALB/c mouse sepsis model assessed as normalization of cell morphology in spleen at 10 mg/kg, ip measured after 48 hrs by H & E staining based analysis; format: functional, organism-based
Cell membrane [27] = assay: Disruption of membrane integrity in methicillin-resistant Staphylococcus aureus 15 assessed as increase in fluorescence intensity at 32 ug/ml measured immediately by Sytox green based fluorescence method; format: subcellular; conditions: dose 32.0 µg/ml
Staphylococcus aureus [28] = assay: Antibacterial activity against methicillin-resistant Staphylococcus aureus 15 infected in BALB/c mouse sepsis model assessed as normalization of cell morphology in kidney at 10 mg/kg, ip measured after 48 hrs by H & E staining based analysis; format: functional, organism-based
Staphylococcus aureus [29] = assay: Antibacterial activity against methicillin-resistant Staphylococcus aureus 15 infected in BALB/c mouse sepsis model assessed as normalization of cell morphology in liver at 10 mg/kg, ip measured after 48 hrs by H & E staining based analysis; format: functional, organism-based
[30] = Toxicity in BALB/c mouse assessed as pathological changes in kidney at 50 mg/kg, ip administered as single dose and measured after 24 hrs by H & E staining based analysis; format: organism-based; conditions: in vivo
Cell membrane [31] = assay: Induction of cell membrane disruption in methicillin-resistant Staphylococcus aureus 15 assessed as protein leakage at 1 to 6 times MIC incubated for 1 to 2 hrs; format: subcellular; conditions: time 1-2 hrs
[32] = Toxicity in BALB/c mouse assessed as effect on albumin level at 50 mg/kg, ip administered as single dose and measured after 24 hrs; format: organism-based; conditions: in vivo
Cell membrane [33] = assay: Disruption of membrane integrity in methicillin-resistant Staphylococcus aureus 15 assessed as increase in red fluorescence at 16 ug/ml incubated for 1 hr by DAPI/PI staining based fluorescence microscopic analysis; format: subcellular; conditions: dose 16.0 µg/ml

Compound | HC50 at 1 h [1] | Activity (Cell membrane [2]) | Activity (Staphylococcus aureus [3]) | Activity (Staphylococcus aureus [4]) | Activity (Staphylococcus aureus [5]) | MIC (Salmonella enterica) | Activity (Cell membrane [6]) | Activity (Staphylococcus aureus [7]) | Activity [8] | survival at 20 mg/kg (Staphylococcus aureus [9]) | Activity [10] | Activity [11] | Activity [12] | Activity [13] | Activity (Staphylococcus aureus [14]) | Activity [15] | MIC (Micrococcus luteus) | Activity (Cell membrane [16]) | Activity [17] | inhibition (Staphylococcus aureus [18]) | also measured
C=CCc1cccc(Oc2ccc(C(=O)CC)cc2)c1OCC[N+](C)(C)CC(=O)NCCCCCC.[Br-] | 1110 µg/mL | Active | inactive | Dose-Dependent Effect | Dose-Dependent Effect | 64 µg/mL | Active | Active | Non-Toxic | 100% | Non-Toxic | Non-Toxic | Non-Toxic | Non-Toxic | inactive | Non-Toxic | 4 µg/mL | Active | Non-Toxic | Active | Activity (Staphylococcus aureus [19]): inactive; Activity (Staphylococcus aureus [20]): Active; Activity (Staphylococcus aureus [21]): Active; inhibition (Staphylococcus aureus [22]): Dose-Dependent Effect; Activity (Staphylococcus aureus [23]): Active; Activity (L02): Non-Toxic; Activity (Staphylococcus aureus [24]): Active; Activity (Staphylococcus aureus [25]): Active; Activity (Staphylococcus aureus [26]): Active; Activity (Cell membrane [27]): Active; Activity (Staphylococcus aureus [28]): Active; Activity (Staphylococcus aureus [29]): Active; Activity [30]: Non-Toxic; Activity (Cell membrane [31]): Active; Activity [32]: Non-Toxic; Activity (Cell membrane [33]): Active
C=CCc1cccc(Oc2ccc(C(=O)CC)cc2)c1OCCC[N+](C)(C)CC(=O)NCCCCCC.[Br-] | 916 µg/mL | Active | inactive | Dose-Dependent Effect | Dose-Dependent Effect | 32 µg/mL | Active | Active | Non-Toxic | 100% | Non-Toxic | Non-Toxic | Non-Toxic | Non-Toxic | inactive | Non-Toxic | 1 µg/mL | Active | Non-Toxic | Active | Activity (Staphylococcus aureus [19]): inactive; Activity (Staphylococcus aureus [20]): Active; Activity (Staphylococcus aureus [21]): Active; inhibition (Staphylococcus aureus [22]): Dose-Dependent Effect; Activity (Staphylococcus aureus [23]): Active; Activity (L02): Non-Toxic; Activity (Staphylococcus aureus [24]): Active; Activity (Staphylococcus aureus [25]): Active; Activity (Staphylococcus aureus [26]): Active; Activity (Cell membrane [27]): Active; Activity (Staphylococcus aureus [28]): Active; Activity (Staphylococcus aureus [29]): Active; Activity [30]: Non-Toxic; Activity (Cell membrane [31]): Active; Activity [32]: Non-Toxic; Activity (Cell membrane [33]): Active
